Test results as given in ChEMBL document CHEMBL4483862, “Open-source discovery of chemical leads for next-generation chemoprotective antimalarials” (2018).

Tested on: Plasmodium berghei
Experiment: Luciferase/luciferin-expressing antifolate-resistant parasites were used to infect a culture of HepG2 cells that were pre-incubated with compounds. Infected hepatocytes emit light due to the luciferase reaction. Assay results are presented as the percent inhibition of light emission compared to control. […]
Assay type: functional
Details: sporozoite; for IC90: read-out: LUCIFERASE INFECTION ASSAY - IC90
[1] = read-out: LUCIFERASE INFECTION ASSAY - IC50

Structure (SMILES) | IC90 [µM] | IC50 [1] [µM] | also measured
C=CCc1c(C)nc2c(-c3ccccc3)cnn2c1N1CCN(CCO)CC1 | > 8.74 | – | IC50 (PBLUC_HILL_SLOPE 1.51, PBLUC_R_SQUARED 0.304, read-out: LUCIFERASE INFECTION ASSAY - IC50): 2.98 µM
Cc1ccc(Cn2nc(C)c(/C=N/NC(=O)c3ccccc3NS(=O)(=O)c3cccs3)c2C)cc1 | > 10 | > 10 | –
Cc1csc2nc(COC(=O)c3ccc(-c4nc5ccccc5s4)o3)cc(=O)n12 | > 10 | > 10 | –
c1csc(-c2cnc3ccc(-c4ccc5c(c4)OCO5)nn23)c1 | > 10 | – | IC50 (HEPG2TOX_HILL_SLOPE 2.2, HEPG2TOX_R_SQUARED 0.859, PBLUC_HILL_SLOPE 2.18, PBLUC_R_SQUARED 0.249, read-out: LUCIFERASE INFECTION ASSAY - IC50): 4.56 µM
Cc1cc(C(=O)Nc2nc3cc(C(F)(F)F)ccc3n2Cc2ccco2)c2c(C)noc2n1 | 3.24 | – | IC50 (HEPG2TOX_HILL_SLOPE 1.6, HEPG2TOX_R_SQUARED 0.983, PBLUC_HILL_SLOPE 3.8, PBLUC_R_SQUARED 0.87, read-out: LUCIFERASE INFECTION ASSAY - IC50): 1.82 µM
Cc1ccsc1CN(C)C(C)C(=O)Nc1cc(C(F)(F)F)ccc1N1CCOCC1 (stereo unspecified) | > 10 | – | IC50 (PBLUC_HILL_SLOPE 0.840, 16.2, PBLUC_R_SQUARED 0.288, 0.265, read-out: LUCIFERASE INFECTION ASSAY - IC50): > 10 µM
CC(C)c1ccccc1-n1c(SCC(=O)N2CCc3ccccc3C2)nc2ccccc2c1=O | > 10 | – | IC50 (FFLUC_HILL_SLOPE 14.4, FFLUC_R_SQUARED 0.575, read-out: LUCIFERASE INFECTION ASSAY - IC50): > 10 µM
CCCCn1c(N)c(N(CC(C)C)C(=O)CCc2ncc(-c3ccc(C)cc3)o2)c(=O)[nH]c1=O | > 10 | > 10 | –
COc1cc(C(=O)Nc2nc3ccccc3[nH]2)ccc1C | 8.73 | 5.35 | –
CCCCNC(=O)C1(C)CCCCN1C(=O)c1ccc2c(c1)C(C)(C)CCC2(C)C (stereo unspecified) | > 8 | – | IC50 (PBLUC_HILL_SLOPE 3, PBLUC_R_SQUARED 0.424, read-out: LUCIFERASE INFECTION ASSAY - IC50): 7.41 µM
c1ccc(C(Sc2ncnc3sccc23)c2ccccc2)cc1 | > 10 | > 10 | –
COC(=O)c1cc(C(=O)OCC(=O)NCCC2=CCCCC2)cc([N+](=O)[O-])c1 | > 10 | > 10 | –
COC(=O)c1c(NC(=O)CN(C)Cc2ccc(OC(F)F)c(OC)c2)sc(C)c1C | > 10 | > 10 | –
Cc1ccc2c(c1)C(=O)C(=O)N2CCN1CCCCC1 | > 12.1 | – | IC50 (FFLUC_HILL_SLOPE 11.5, FFLUC_R_SQUARED 0.31, read-out: LUCIFERASE INFECTION ASSAY - IC50): > 12.1 µM
COc1cccc(C(=O)N(c2nc3ccccc3s2)c2c(C)cccc2C)c1 | > 10 | – | IC50 (PBLUC_HILL_SLOPE 0.58, PBLUC_R_SQUARED 0.199, read-out: LUCIFERASE INFECTION ASSAY - IC50): > 10 µM
Cc1nn(-c2ccc(C(F)(F)F)cn2)c2ncc(CCCO)cc12 | > 10 | – | IC50 (HEPG2TOX_HILL_SLOPE 0.869, HEPG2TOX_R_SQUARED 0.0884, read-out: LUCIFERASE INFECTION ASSAY - IC50): > 10 µM
Oc1c(Br)cc(Cl)cc1/C=C/c1ccc2cccc(O)c2n1 | > 8.76 | – | IC50 (PBLUC_HILL_SLOPE 4.36, PBLUC_R_SQUARED 0.823, read-out: LUCIFERASE INFECTION ASSAY - IC50): 5.59 µM
Cc1ccccc1-c1cn2c(-c3cccc(O)c3)cnc2cn1 | 8.68 | – | IC50 (HEPG2TOX_HILL_SLOPE 2.6, HEPG2TOX_R_SQUARED 0.936, PBLUC_HILL_SLOPE 3.74, PBLUC_R_SQUARED 0.417, read-out: LUCIFERASE INFECTION ASSAY - IC50): 4.82 µM
Clc1ccccc1-c1nc2ccnc(NCCc3ccccn3)c2[nH]1 | > 10 | – | IC50 (HEPG2TOX_HILL_SLOPE 2.25, HEPG2TOX_R_SQUARED 0.756, PBLUC_HILL_SLOPE 1.33, PBLUC_R_SQUARED 0.656, read-out: LUCIFERASE INFECTION ASSAY - IC50): 5.37 µM
c1ccc2c(CSCCC34CC5CC(CC(C5)C3)C4)cccc2c1 | > 10 | > 10 | –
CNS(=O)(=O)c1cc(NS(=O)(=O)/C=C/c2ccccc2)ccc1C | > 10 | > 10 | –
COc1ccccc1C(=O)NCC#Cc1cccc(C(F)(F)F)c1 | 8.91 | – | IC50 (PBLUC_HILL_SLOPE 4.8, PBLUC_R_SQUARED 0.508, read-out: LUCIFERASE INFECTION ASSAY - IC50): 5.64 µM

Structure (SMILES) | IC90 [µM] | IC50 [1] [µM] | also measured
CN1CCN(c2ccc(-c3cn4c(-c5ccc6c(ccn6C)c5)cnc4cn3)cn2)CC1 | > 7.79 | – | IC50 (HEPG2TOX_HILL_SLOPE 8.77, HEPG2TOX_R_SQUARED 0.447, PBLUC_HILL_SLOPE 3.78, PBLUC_R_SQUARED 0.492, read-out: LUCIFERASE INFECTION ASSAY - IC50): 4.51 µM
COc1ccc(C2CC(c3ccccc3)=NN2C(=O)COc2c(Cl)cc(Cl)c3ccc(C)nc23)cc1 (stereo unspecified) | > 10 | > 10 | –
O=C(Nc1ccc(Oc2ccc(OC(F)(F)F)cc2)cc1)C1CC1 | 1.54 | – | IC50 (PBLUC_HILL_SLOPE 2.12, PBLUC_R_SQUARED 0.759, read-out: LUCIFERASE INFECTION ASSAY - IC50): 0.548 µM
O=C(NC(=S)Nc1ccc(F)cc1)c1cnn2c(C(F)(F)F)cc(C(F)(F)F)nc12 | > 7.31 | > 7.31 | –
COc1ccccc1N(Cc1nc(N)nc(Nc2ccc(C)cc2)n1)S(=O)(=O)c1cccs1 | 4.3 | – | IC50 (HEPG2TOX_HILL_SLOPE 0.853, HEPG2TOX_R_SQUARED 0.978, PBLUC_HILL_SLOPE 2.92, PBLUC_R_SQUARED 0.627, read-out: LUCIFERASE INFECTION ASSAY - IC50): 2.03 µM
Cc1nc2ccccc2nc1SCC(=O)c1ccc(NS(C)(=O)=O)cc1 | > 10 | – | IC50 (FFLUC_HILL_SLOPE 1.05, FFLUC_R_SQUARED 0.177, HEPG2TOX_HILL_SLOPE 1.12, HEPG2TOX_R_SQUARED 0.682, read-out: LUCIFERASE INFECTION ASSAY - IC50): > 10 µM
CCc1cn(Cc2ccccc2)c[n+]1Cc1ccccc1 | > 10.5 | – | IC50 (FFLUC_HILL_SLOPE 0.817, FFLUC_R_SQUARED 0.751, PBLUC_HILL_SLOPE 3.02, PBLUC_R_SQUARED 0.429, read-out: LUCIFERASE INFECTION ASSAY - IC50): 5.71 µM
CC(C)(C)c1ccc(-c2nnc(SCC(=O)Nc3sccc3C(N)=O)n2C2CCCC2)cc1 | > 10 | – | IC50 (HEPG2TOX_HILL_SLOPE 7.51, 0.572, HEPG2TOX_R_SQUARED 0.693, 0.490, PBLUC_HILL_SLOPE 1.93, PBLUC_R_SQUARED 0.568, read-out: LUCIFERASE INFECTION ASSAY - IC50): 4.92 µM
N#CCCN(CCC#N)C(=O)CSc1nnc(CCC(N)=O)n1C1CC1 | > 10 | > 10 | –
S=c1n(CN2CCN(c3ccccc3Cl)CC2)nc(-c2cccs2)n1Cc1ccccc1 | 0.362 | – | IC50 (PBLUC_HILL_SLOPE 3, PBLUC_R_SQUARED 0.854, read-out: LUCIFERASE INFECTION ASSAY - IC50): 0.174 µM
CC(c1nc2ccccc2s1)N(C)c1ncnc2sc3c(c12)CCC3 (stereo unspecified) | > 10 | – | IC50 (FFLUC_HILL_SLOPE 2.52, FFLUC_R_SQUARED 0.413, HEPG2TOX_HILL_SLOPE 5.64, HEPG2TOX_R_SQUARED 0.118, PBLUC_HILL_SLOPE 2.14, PBLUC_R_SQUARED 0.426, read-out: LUCIFERASE INFECTION ASSAY - IC50): > 10 µM
CC(C)CC(N)c1csc(Nc2nncc3ccccc23)n1 (stereo unspecified) | 4.43 | – | IC50 (HEPG2TOX_HILL_SLOPE 11.3, HEPG2TOX_R_SQUARED 0.262, PBLUC_HILL_SLOPE 9.28, PBLUC_R_SQUARED 0.498, read-out: LUCIFERASE INFECTION ASSAY - IC50): 3.5 µM
C#CCCCCCCCCC(=O)NO | > 10 | > 10 | –
Cc1cccc(C)c1OCCOC(=O)c1[nH]nc2ccccc12 | > 10 | > 10 | –
N=C1c2ccccc2CN1NC(=O)CCCOc1ccc(Cl)cc1Cl | 7.29 | – | IC50 (PBLUC_HILL_SLOPE 1.16, PBLUC_R_SQUARED 0.64, read-out: LUCIFERASE INFECTION ASSAY - IC50): 1.1 µM
CC(C#N)Sc1nc(Nc2ccccc2)c2ccccc2n1 (stereo unspecified) | > 10 | > 10 | –
O=C(NC1CC1)c1ccc(-c2cn3c(-c4ccc(O)cc4)cnc3cn2)cc1 | > 8.91 | – | IC50 (HEPG2TOX_HILL_SLOPE 9.19, HEPG2TOX_R_SQUARED 0.833, PBLUC_HILL_SLOPE 2.2, PBLUC_R_SQUARED 0.157, read-out: LUCIFERASE INFECTION ASSAY - IC50): 7.74 µM
CCCCCCN(C(=O)CC(NC(=O)c1ccccc1)c1ccccc1)c1nc2ccccc2s1 (stereo unspecified) | 9.24 | – | IC50 (FFLUC_HILL_SLOPE 11.5, FFLUC_R_SQUARED 0.371, PBLUC_HILL_SLOPE 30.2, PBLUC_R_SQUARED 0.437, read-out: LUCIFERASE INFECTION ASSAY - IC50): 8.6 µM
C/C(=N\NC(N)=S)c1ccc(CC(C)C)cc1 | > 13.2 | – | IC50 (HEPG2TOX_HILL_SLOPE 2.45, HEPG2TOX_R_SQUARED 0.895, PBLUC_HILL_SLOPE 1.49, PBLUC_R_SQUARED 0.577, read-out: LUCIFERASE INFECTION ASSAY - IC50): 4.2 µM
Cc1nc(C(=O)NNC(=O)c2c(-c3c(Cl)cccc3Cl)noc2C)cs1 | 3.12 | – | IC50 (HEPG2TOX_HILL_SLOPE 1.49, HEPG2TOX_R_SQUARED 0.872, PBLUC_HILL_SLOPE 12.3, PBLUC_R_SQUARED 0.357, read-out: LUCIFERASE INFECTION ASSAY - IC50): 2.61 µM
COc1ccc(N(CCC(N)=O)C(=O)CSc2nc3ccccc3n2-c2ccc(OC)cc2)cc1 | > 10 | – | IC50 (FFLUC_HILL_SLOPE 0.23, FFLUC_R_SQUARED 0.0771, read-out: LUCIFERASE INFECTION ASSAY - IC50): > 10 µM
